Data reported in PubChem BioAssay AID248 (DTP/NCI, 2004).
Values joined by “and” are separate entries in the source; they are usually repeats but may differ in a detail not shown here. Identical values can stand only once. Toxic doses and inconclusive results are not listed.

System: L1210 leukemia ip in BDF1 mice, survival T/C
Test: NCI In Vivo Anticancer Drug Screen. Data for tumor model L1210 Leukemia (intraperitoneal) in B6D2F1 (BDF1) mice
Conditions: endpoint: mean survival time, higher = longer survival
Method in brief: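 Survival endpoint. Drug-treated group vs vehicle group, expressed as T divided by C. Tumor passaged by transplantation.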

[1] = dose: 100.0 mg/kg/injection, schedule: Q04DX003 (ip), vehicle: saline
[2] = dose: 200.0 mg/kg/injection, schedule: Q04DX003 (ip), vehicle: saline
[3] = dose: 75.0 mg/kg/injection, schedule: Q01DX001 (ip), vehicle: carboxymethylcellulose (CMC)
[4] = dose: 100.0 mg/kg/injection, schedule: Q04DX002 (ip), vehicle: saline
[5] = dose: 200.0 mg/kg/injection, schedule: Q04DX002 (ip), vehicle: saline
[6] = dose: 50.0 mg/kg/injection, schedule: Q01DX009 (ip), vehicle: carboxymethylcellulose (CMC)
[7] = dose: 100.0 mg/kg/injection, schedule: Q04DX003 (ip), vehicle: saline with Tween-80
[8] = dose: 200.0 mg/kg/injection, schedule: Q04DX003 (ip), vehicle: saline with Tween-80
[9] = dose: 400.0 mg/kg/injection, schedule: Q04DX003 (ip), vehicle: saline with Tween-80
[10] = dose: 100.0 mg/kg/injection, schedule: Q01DX001 (ip), vehicle: carboxymethylcellulose (CMC)
[11] = dose: 200.0 mg/kg/injection, schedule: Q01DX001 (ip), vehicle: carboxymethylcellulose (CMC)
[12] = dose: 400.0 mg/kg/injection, schedule: Q01DX001 (ip), vehicle: carboxymethylcellulose (CMC)
[13] = dose: 400.0 mg/kg/injection, schedule: Q04DX003 (ip), vehicle: saline

CC(=O)NNC(=O)c1ccncc1
T/C (dose: 100.0 mg/kg/injection, schedule: Q01DX001 (ip), vehicle: water): 93 % of control
T/C (dose: 100.0 mg/kg/injection, schedule: Q01DX009 (ip), vehicle: water): 101 % of control
T/C (dose: 200.0 mg/kg/injection, schedule: Q01DX001 (ip), vehicle: water): 98 % of control
T/C (dose: 200.0 mg/kg/injection, schedule: Q01DX009 (ip), vehicle: water): 106 % of control and 110 % of control
T/C (dose: 400.0 mg/kg/injection, schedule: Q01DX001 (ip), vehicle: water): 102 % of control
T/C (dose: 600.0 mg/kg/injection, schedule: Q01DX009 (ip), vehicle: water): 122 % of control
T/C (dose: 800.0 mg/kg/injection, schedule: Q01DX009 (ip), vehicle: water): 97 % of control

CCC(C)C(CN)(CCCN1CCCCC1)c1cccc2ccccc12 (stereo not drawn)
T/C [1]: 97 % of control
T/C [2]: 95 % of control

CCOc1ccc(N=O)c(O)c1
T/C [3]: 101 % of control
T/C (dose: 150.0 mg/kg/injection, schedule: Q01DX001 (ip), vehicle: carboxymethylcellulose (CMC)): 90 % of control

Cc1cccc(C)c1NC(=O)C[N+](C)(C)N
T/C [4]: 94 % of control
T/C [5]: 94 % of control

CCCC(/C=N/Nc1ccc([N+](=O)[O-])cc1[N+](=O)[O-])=C\c1ccccc1
T/C (dose: 100.0 mg/kg/injection, schedule: Q01DX001 (ip), vehicle: saline with Tween-80): 88 % of control
T/C (dose: 200.0 mg/kg/injection, schedule: Q01DX001 (ip), vehicle: saline with Tween-80): 88 % of control

O=C(CCN1CC1)NCCCCCCCCNC(=O)CCN1CC1
T/C (dose: 1.0 mg/kg/injection, schedule: Q01DX009 (ip), vehicle: saline): 91 % of control
T/C (dose: 2.0 mg/kg/injection, schedule: Q01DX009 (ip), vehicle: saline): 105 % of control
T/C (dose: 4.0 mg/kg/injection, schedule: Q01DX009 (ip), vehicle: carboxymethylcellulose (CMC)): 111 % of control
T/C (dose: 8.0 mg/kg/injection, schedule: Q01DX009 (ip), vehicle: carboxymethylcellulose (CMC)): 96 % of control
T/C (dose: 22.0 mg/kg/injection, schedule: Q01DX001 (ip), vehicle: carboxymethylcellulose (CMC)): 111 % of control
T/C (dose: 26.0 mg/kg/injection, schedule: Q01DX009 (ip), vehicle: carboxymethylcellulose (CMC)): 151 % of control
T/C (dose: 33.0 mg/kg/injection, schedule: Q01DX001 (ip), vehicle: carboxymethylcellulose (CMC)): 122 % of control
T/C (dose: 33.0 mg/kg/injection, schedule: Q01DX009 (ip), vehicle: carboxymethylcellulose (CMC)): 151 % of control
T/C [6]: 160 % of control
T/C [3]: 150 % of control

O=C(O)c1c(F)ccc([N+](=O)[O-])c1F
T/C [4]: 108 % of control
T/C [5]: 103 % of control

S=c1[nH]c(=S)c2[nH]cnc(=S)c2[nH]1
T/C (dose: 2.0 mg/kg/injection, schedule: Q01DX Z (ip), vehicle: carboxymethylcellulose (CMC)): 103 % of control
T/C (dose: 4.0 mg/kg/injection, schedule: Q01DX Z (ip), vehicle: carboxymethylcellulose (CMC)): 91 % of control
T/C (dose: 8.0 mg/kg/injection, schedule: Q01DX Z (ip), vehicle: carboxymethylcellulose (CMC)): 89 % of control
T/C (dose: 12.5 mg/kg/injection, schedule: Q01DX Z (ip), vehicle: carboxymethylcellulose (CMC)): 91 % of control
T/C (dose: 25.0 mg/kg/injection, schedule: Q01DX Z (ip), vehicle: carboxymethylcellulose (CMC)): 96 % of control

Clc1nc2ccccc2s1
T/C (dose: 100.0 mg/kg/injection, schedule: Q01DX009 (ip), vehicle: alcohol): 88 % of control
T/C (dose: 200.0 mg/kg/injection, schedule: Q01DX009 (ip), vehicle: alcohol): 89 % of control

CC(C)(C)c1ccc(S(=O)(=O)C/C=C/COc2ccccc2)cc1
T/C (dose: 75.0 mg/kg/injection, schedule: Q01DX009 (ip), vehicle: Klucel (hydroxypropylcellulose) (HPC)): 91 % of control
T/C (dose: 150.0 mg/kg/injection, schedule: Q01DX009 (ip), vehicle: Klucel (hydroxypropylcellulose) (HPC)): 98 % of control

CCn1c2ccccc2c2cc(NC(C)=O)ccc21
T/C [7]: 103 % of control
T/C [8]: 98 % of control
T/C [9]: 101 % of control

Cc1ccc2c(c1)CC=CO2
T/C [6]: 91 % of control
T/C [10]: 96 % of control
T/C (dose: 100.0 mg/kg/injection, schedule: Q01DX009 (ip), vehicle: carboxymethylcellulose (CMC)): 94 % of control and 97 % of control
T/C (dose: 100.0 mg/kg/injection, schedule: Q01DX009 (ip), vehicle: saline with Tween-80): 88 % of control
T/C [7]: 101 % of control
T/C [11]: 96 % of control
T/C (dose: 200.0 mg/kg/injection, schedule: Q01DX009 (ip), vehicle: carboxymethylcellulose (CMC)): 94 % of control and 95 % of control
T/C [8]: 97 % of control
T/C [12]: 100 % of control
T/C (dose: 400.0 mg/kg/injection, schedule: Q01DX009 (ip), vehicle: carboxymethylcellulose (CMC)): 96 % of control
T/C (dose: 400.0 mg/kg/injection, schedule: Q01DX009 (ip), vehicle: saline with Tween-80): 92 % of control
T/C [9]: 98 % of control

O=c1c(N(CCO)CCO)cn(C(c2ccccc2)(c2ccccc2)c2ccccc2)c(=O)n1C(c1ccccc1)(c1ccccc1)c1ccccc1
T/C (dose: 50.0 mg/kg/injection, schedule: Q01DX001 (ip), vehicle: carboxymethylcellulose (CMC)): 104 % of control
T/C [10]: 96 % of control
T/C [11]: 100 % of control
T/C [12]: 96 % of control

COc1ccc(CCN=C2C3CC4CC(C3)CC2C4)cc1OC
T/C (dose: 100.0 mg/kg/injection, schedule: Q01DX001 (ip), vehicle: saline): 98 % of control
T/C (dose: 200.0 mg/kg/injection, schedule: Q01DX001 (ip), vehicle: saline): 98 % of control
T/C (dose: 400.0 mg/kg/injection, schedule: Q01DX001 (ip), vehicle: saline): 103 % of control

CCOC(=O)C(=CN1CCCCCC1)C(=O)OCC
T/C [1]: 106 % of control
T/C [2]: 97 % of control
T/C [13]: 89 % of control

O=C(/C(=C/c1ccc(F)cc1)c1ccccc1)c1ccc(O)cc1
T/C [10]: 92 % of control
T/C [11]: 110 % of control
T/C [12]: 94 % of control

CN(C)/N=C/c1ccccn1
T/C [1]: 106 % of control
T/C [2]: 109 % of control

Cc1c(Cl)c(C)c(Cl)c(O)c1Cl (tested in a mixture with another compound)
T/C (dose: 25.0 mg/kg/injection, schedule: Q01DX009 (ip), vehicle: saline with Tween-80): 97 % of control
T/C (dose: 50.0 mg/kg/injection, schedule: Q01DX009 (ip), vehicle: saline with Tween-80): 93 % of control
T/C (dose: 100.0 mg/kg/injection, schedule: Q04DX002 (ip), vehicle: other): 95 % of control
T/C (dose: 200.0 mg/kg/injection, schedule: Q04DX002 (ip), vehicle: other): 90 % of control

Cc1ccc2ccccc2n1
T/C [1]: 91 % of control
T/C [2]: 93 % of control
T/C [13]: 98 % of control

Cc1cn(C2CC(F)C(CO)O2)c(=O)[nH]c1=O (stereo not drawn)
T/C (dose: 12.5 mg/kg/injection, schedule: Q01DX009 (ip), vehicle: saline): 108 % of control
T/C (dose: 25.0 mg/kg/injection, schedule: Q01DX009 (ip), vehicle: saline): 102 % of control
T/C (dose: 50.0 mg/kg/injection, schedule: Q01DX009 (ip), vehicle: saline): 117 % of control
T/C (dose: 78.0 mg/kg/injection, schedule: Q01DX009 (ip), vehicle: saline): 107 % of control
T/C (dose: 100.0 mg/kg/injection, schedule: Q01DX009 (ip), vehicle: saline): 121 % of control
T/C (dose: 130.0 mg/kg/injection, schedule: Q01DX009 (ip), vehicle: saline): 115 % of control
T/C (dose: 360.0 mg/kg/injection, schedule: Q01DX009 (ip), vehicle: saline): 109 % of control

NC(=O)C1C2C=CC(C2)C1C(N)=O (stereo not drawn)
T/C [7]: 96 % of control
T/C [8]: 91 % of control
T/C [9]: 98 % of control

Cc1nc(C(N)=O)c2nc3c4ccccc4c4ccccc4c3nn12
T/C (dose: 25.0 mg/kg/injection, schedule: Q04DX002 (ip), vehicle: saline with Tween-80): 94 % of control
T/C (dose: 50.0 mg/kg/injection, schedule: Q04DX002 (ip), vehicle: saline with Tween-80): 91 % of control
T/C (dose: 100.0 mg/kg/injection, schedule: Q04DX002 (ip), vehicle: saline with Tween-80): 87 % of control
T/C (dose: 200.0 mg/kg/injection, schedule: Q04DX002 (ip), vehicle: saline with Tween-80): 89 % of control
T/C (dose: 400.0 mg/kg/injection, schedule: Q04DX002 (ip), vehicle: saline with Tween-80): 92 % of control
